{"source": "patent US9708325B2", "about": "“Sulfonimidoylpurinone compounds and derivatives for the treatment and prophylaxis of virus infection” (Hoffmann-La Roche Inc., priority 2015, dated 2017)", "key": {"[1]": {"target": "human TLR8 (Homo sapiens (Human), UniProt Q9NR97)", "sequence (Q9NR97 27-1041)": "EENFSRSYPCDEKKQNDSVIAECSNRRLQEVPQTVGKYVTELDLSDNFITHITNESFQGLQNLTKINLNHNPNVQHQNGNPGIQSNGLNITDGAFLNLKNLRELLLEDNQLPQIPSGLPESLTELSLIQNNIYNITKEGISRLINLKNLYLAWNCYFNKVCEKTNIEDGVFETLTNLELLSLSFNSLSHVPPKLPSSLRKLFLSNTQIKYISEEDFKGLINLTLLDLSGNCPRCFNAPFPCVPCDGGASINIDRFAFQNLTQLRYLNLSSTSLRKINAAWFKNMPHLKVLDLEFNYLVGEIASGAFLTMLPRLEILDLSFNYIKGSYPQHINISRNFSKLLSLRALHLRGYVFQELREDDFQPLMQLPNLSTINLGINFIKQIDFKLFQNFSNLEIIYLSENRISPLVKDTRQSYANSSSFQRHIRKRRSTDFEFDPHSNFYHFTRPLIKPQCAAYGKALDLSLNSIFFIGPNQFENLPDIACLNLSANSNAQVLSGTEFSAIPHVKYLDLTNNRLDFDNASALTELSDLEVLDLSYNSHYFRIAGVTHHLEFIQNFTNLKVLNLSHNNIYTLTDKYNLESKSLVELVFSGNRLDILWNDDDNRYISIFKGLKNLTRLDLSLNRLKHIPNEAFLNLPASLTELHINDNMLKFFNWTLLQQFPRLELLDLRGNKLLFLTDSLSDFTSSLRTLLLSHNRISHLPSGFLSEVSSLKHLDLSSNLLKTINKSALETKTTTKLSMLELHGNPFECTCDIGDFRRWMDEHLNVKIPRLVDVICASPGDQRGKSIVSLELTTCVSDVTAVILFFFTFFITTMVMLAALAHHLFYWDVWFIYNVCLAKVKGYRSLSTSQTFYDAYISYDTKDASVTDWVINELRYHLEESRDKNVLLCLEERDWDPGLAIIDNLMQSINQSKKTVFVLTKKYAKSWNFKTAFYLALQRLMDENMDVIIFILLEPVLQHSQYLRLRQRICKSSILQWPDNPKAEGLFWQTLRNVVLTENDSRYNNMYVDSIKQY", "assay": "HEK-Blue-hTLR8 cells assay and selectivity index", "assay_type": "cell-based", "description": "A stable HEK-Blue-hTLR8 cell line was purchased from InvivoGen (Cat.#: HEK-Blue-htlr8, San Diego, Calif., USA). These cells were designed for studying the stimulation of human TLR8 by monitoring the activation of NF-κB. […] Therefore the reporter expression was regulated by the NF-κB promoter upon stimulation of human TLR8 for 20 hrs. The cell culture supernatant SEAP reporter activity was determined using QUANTI-Blue™ kit (Cat.#: rep-qb1, Invivogen, San Diego, Ca, USA) at a wavelength of 640 nm, a detection medium that turns purple or blue in the presence of alkaline phosphatase.\nHEK-Blue-hTLR8 cells were incubated at a density of 250,000˜450,000 cells/mL in a volume of 180 μL in a 96-well plate in Dulbecco's Modified Eagle's medium (DMEM) containing 4.5 g/L glucose, 50 U/mL penicillin, […], […], 2 mM L-glutamine, 10% (V/V) heat-inactivated fetal bovine serum for 24 hrs. Then the HEK-Blue-hTLR8 cells were incubated with addition of 20 μL test compound in a serial dilution in the presence of final DMSO at 1% and perform incubation under 37° C. in a CO2 incubator for 20 hrs. Then 20 μL of the supernatant from each well was incubated with 180 μL Quanti-blue substrate solution at 37° C. for 2 hours and the absorbance was read at 620˜655 nm using a spectrophotometer. The signalling pathway that TLR8 activation leads to downstream NF-κB activation has been widely accepted, and therefore similar reporter assay was also widely used for evaluating TLR8 agonist (Tsuneyasu Kaisho and Takashi Tanaka, Trends in Immunology, Volume 29, Issue 7, July 2008, […]; Hiroaki Hemmi et al, Nature Immunology 3, 196-200 (2002)).\nThe ratio of TLR8 agonism activity compared to TLR7 agonism activity was defined as the selectivity index (EC50 (TLR8) value/EC50(TLR7) value) and calculated accordingly."}, "[2]": {"target": "human TLR7 (Homo sapiens (Human), UniProt Q9NYK1)", "sequence (Q9NYK1 27-1049)": "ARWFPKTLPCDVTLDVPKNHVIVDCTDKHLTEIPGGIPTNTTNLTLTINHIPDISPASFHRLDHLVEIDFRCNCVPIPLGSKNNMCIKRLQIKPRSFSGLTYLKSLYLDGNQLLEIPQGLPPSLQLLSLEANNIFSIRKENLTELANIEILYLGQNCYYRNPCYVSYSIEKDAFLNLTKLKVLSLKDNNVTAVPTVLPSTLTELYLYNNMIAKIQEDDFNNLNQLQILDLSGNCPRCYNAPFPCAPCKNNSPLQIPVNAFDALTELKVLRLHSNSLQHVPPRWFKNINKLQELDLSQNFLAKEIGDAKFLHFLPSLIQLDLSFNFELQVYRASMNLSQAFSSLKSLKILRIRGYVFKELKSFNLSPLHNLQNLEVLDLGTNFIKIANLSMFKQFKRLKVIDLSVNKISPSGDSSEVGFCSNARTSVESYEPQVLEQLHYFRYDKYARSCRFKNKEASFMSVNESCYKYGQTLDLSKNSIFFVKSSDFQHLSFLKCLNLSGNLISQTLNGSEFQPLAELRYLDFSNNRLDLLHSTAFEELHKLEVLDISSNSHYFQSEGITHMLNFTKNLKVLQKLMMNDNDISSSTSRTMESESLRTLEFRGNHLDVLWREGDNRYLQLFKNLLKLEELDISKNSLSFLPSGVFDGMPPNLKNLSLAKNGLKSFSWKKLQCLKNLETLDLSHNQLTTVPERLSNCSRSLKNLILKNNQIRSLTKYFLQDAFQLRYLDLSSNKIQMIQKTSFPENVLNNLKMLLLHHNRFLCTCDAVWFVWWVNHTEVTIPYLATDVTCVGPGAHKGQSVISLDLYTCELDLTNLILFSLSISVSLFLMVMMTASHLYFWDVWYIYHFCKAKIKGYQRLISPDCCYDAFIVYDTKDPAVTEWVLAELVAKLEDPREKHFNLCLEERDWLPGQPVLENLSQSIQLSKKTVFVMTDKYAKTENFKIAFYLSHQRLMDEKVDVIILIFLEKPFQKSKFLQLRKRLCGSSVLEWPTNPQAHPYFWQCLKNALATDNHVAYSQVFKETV", "assay": "HEK-Blue-hTLR7 cells assay (SEAP reporter)", "assay_type": "cell-based", "conditions": "20 hrs, read-out: HEK-Blue-hTLR7 (EC50 (μM))", "method_in_brief": "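HEK-Blue cells stably carrying human TLR7 and an NF-κB-driven SEAP reporter, preincubated 24 h, then exposed to serially diluted compound (1% DMSO final) for 20 h at 37 °C. Supernatant SEAP measured with QUANTI-Blue substrate, 2 h at 37 °C, absorbance read at 620–655 nm.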"}, "[3]": {"conditions": "rat, IV 1 mpk, data from WO2016023511, cited from earlier work"}, "[4]": {"conditions": "patients with chronic hepatitis B, phase Ib; cited from earlier work"}, "[5]": {"assay": "Metabolic stability in human liver microsomes", "method_in_brief": "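Test compound at 1 μM with 0.5 mg/mL microsomal protein in 100 mM potassium phosphate, pH 7.4, 37 °C, 10 min preincubation, reaction started with NADPH regenerating system. Sampled at 0, 3, 6, 9, 15 and 30 min, quenched with cold ACN, remaining parent by LC-MS/MS. No-NADPH controls at 0 and 30 min.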"}, "[6]": {"tested_on": "CYP3A4", "assay": "Cytochrome P450 induction screening assay, mRNA induction in human cryopreserved hepatocytes", "assay_type": "in vitro ADME", "conditions": "24 hours exposure", "from_the_text": "Induction of cytochrome P450 enzymes is associated with an increased prevalence of clinical drug-drug interactions. The clinical consequences of induction may be therapeutic failure caused by a decreased systemic exposure of the drug itself or a co-administered therapy, or toxicity as a result of increased bioactivation. Cytochrome P450 (CYP450) induction assay has been used to understand the potential drug-drug interaction liabilities in drug discovery stage. Human cryopreserved hepatocytes (Life Technologies, Carlsbad, USA) were thawed and cultured in collagen I coated 96-well plates with a density of 52,000 cells/well. After attachment, hepatocyte maintenance medium (HMM; Lonza, Switzerland) was changed after cells were pre-cultured overnight. […] Medium change was then performed and cells were exposed for 24 hours to test compounds, positive inducer compounds, or vehicle (0.1% DMSO), respectively. At the end of the compound exposure period, medium was removed and cells lysed using 100 μL/well MagNA Pure LC RNA isolation tissue lysis buffer (Roche Diagnostics AG, Rotkreuz, Switzerland). […] mRNA isolation was performed using the MagNA Pure 96 system (Roche Diagnostics AG, Rotkreuz, Switzerland) and the respective cellular RNA large volume kit (Roche Diagnostics AG, Rotkreuz, Switzerland) from thawed samples diluted 1:1 with PBS. […] The resulting cDNA was diluted with 40 μL of H2O before using for qRT-PCR. qRT-PCR was performed by using the forward and the reverse primer, the corresponding Universal Probe Library (all from Microsynth, Balgach, Switzerland) and the Taqman Fast advanced master mix (Applied Biosystems), on an ABI 7900 machine (Applied Biosystems). qRT-PCR Ct-values for the respective P450s were put into relation to the Ct-value of RN18S1 (microsynth, Balgach, Switzerland) of the same sample. Doing so, a respective Δct-value was calculated. Using the average of all Δct-values for the vehicle control samples, a ΔΔct-value was calculated for each sample (ΔΔct-value(sample)=Δct-value(sample)−average of Δct-value of all vehicle controls). […] The individual fold induction values were then averaged per treatment condition (usually n=3 biological replicates)."}, "[7]": {"assay": "LYSA solubility", "assay_type": "physicochemical", "conditions": "0.05 M phosphate buffer, pH 6.5, aqueous buffer, thermodynamic from solid", "description": "LYSA solubility assay is used to determine the aqueous solubility of a compound. Samples were prepared in duplicate from 10 mM DMSO stock solution. […] After one night, the solutions were filtered using a microtiter filter plate. Then the filtrate and its 1/10 dilution were analyzed by HPLC-UV."}}, "note": "Where two headings read alike, the source gives them in different places.", "data": [{"smiles": "CCCCOc1nc(N)c2c(n1)N(Cc1cccc(CN3CCCC3)c1)CC(=O)N2", "note": "[GS-9620]", "values": [{"measurement": "EC50", "setting": "[1]", "value": 11600, "unit": "nM"}, {"measurement": "Selective index", "setting": "[1]; EC50(TLR8) value/EC50(TLR7) value", "value": 14}, {"measurement": "EC50", "setting": "[2]", "value": 0.8, "unit": "µM"}, {"measurement": "Mean plasma concentration", "setting": "[3]; 0.083 h", "value": 170, "unit": "nM"}, {"measurement": "Mean plasma concentration", "setting": "[3]; 0.25 h", "value": 102, "unit": "nM"}, {"measurement": "Mean plasma concentration", "setting": "[3]; 0.5 h", "value": 65.4, "unit": "nM"}, {"measurement": "Mean plasma concentration", "setting": "[3]; 1 h", "value": 48.1, "unit": "nM"}, {"measurement": "Mean plasma concentration", "setting": "[3]; 2 h", "value": 21.6, "unit": "nM"}, {"measurement": "Mean plasma concentration", "setting": "[3]; 4 h", "value": 13, "unit": "nM"}, {"measurement": "Mean plasma concentration", "setting": "[3]; 8 h", "value": 4.17, "unit": "nM"}, {"measurement": "CO", "setting": "[3]", "value": 220, "unit": "nM"}, {"measurement": "ISG15 mRNA induction", "setting": "[4]", "value": "dose-dependent ISG15 mRNA induction"}, {"measurement": "Safety and tolerability", "setting": "[4]", "value": "safe, well tolerated"}, {"measurement": "Human Liver Microsome Clearance", "setting": "[5]; 1 μM test compound, 0.5 mg/mL microsomal protein, 6.15 mL/min/kg is the limitation of assay sensitivity", "value": 17.8, "unit": "mL/min/kg"}, {"measurement": "Human liver microsome clearance category", "setting": "[5]; categorized low/medium/high", "value": "high (high (16.2-23.2 mL/min/kg))"}]}, {"smiles": "CCCS(=N)(=O)c1nc(N)c2[nH]c(=O)n(Cc3ccc(F)cc3)c2n1", "note": "(stereo not drawn) [Example 24, 6-Amino-9-[(4-fluorophenyl)methyl]-2-(propylsulfonimidoyl)-7H-purin-8-one]", "values": [{"measurement": "Relative induction of Positive control (10 μM Rifampicin) (%)", "setting": "[6]", "value": "−0.72", "unit": "%"}, {"measurement": "solubility thermodynamic", "setting": "[7]", "value": 12, "unit": "µg/mL"}, {"measurement": "EC50", "setting": "[2]", "value": 0.037, "unit": "µM"}]}]}
